Assay: in vitro
Details: human, hela cells, % viability

SMILES	viability at 28.5 h, 10 µM
O=C(O)CCC(=O)NCCc1ccc(Cl)cc1 [CBK287165]	92.7%
Cc1ccc(S(=O)(=O)N(C)C)cc1NC(=O)C12CCC(C)(C(=O)C1)C2(C)C (stereo not shown) [CBK266551]	108%
Cc1nc2sccn2c1CN1CCc2sccc2C1C (stereo not shown) [CBK282807]	92.4%
COC(=O)COc1ccccc1/C=C1\SC(c2ccc(C)cc2)=NC1=O [CBK067741]	92.6%
CCCn1c(C)cc2cc(NC(=O)C(C)n3ccnc3)ccc21 (stereo not shown) [CBK281547]	85.8%
COC(=O)C(Nc1cccc(Cl)c1)(c1cc(OC)c(O)c(OC)c1)C(F)(F)F (stereo not shown) [CBK009591]	96.6%
COc1ccc(C)cc1S(=O)(=O)N1CCCC(C(=O)NCc2ccccn2)C1 (stereo not shown) [CBK268503]	102%
CCN1CCN(C(=O)c2c(C)noc2C)CC1 [CBK200374]	93.6%
Cn1nnnc1SCc1nc(N)nc(Nc2ccccc2)n1 [CBK268092]	98.7%
COc1ccc([N+](=O)[O-])cc1-c1ccc(/C=N/NC(=O)Cn2nnnc2N)o1 [CBK262505]	92.2%
Cc1cn(CC(=O)N2CCN(C(=O)c3ccco3)CC2)c(=O)[nH]c1=O [CBK144472]	87.7%
CCOC(=O)c1ccc(N2C(=O)CC(N3CCN(c4cccc(OC)c4)CC3)C2=O)cc1 (stereo not shown) [CBK265396]	101%
O=C(O)c1cc(S(=O)(=O)Nc2ccc3nc(N4CCCC4)sc3c2)ccc1Br [CBK296710]	91.5%
COc1ccc(CCNS(=O)(=O)c2cc([N+](=O)[O-])ccc2C)cc1OC [CBK267412]	94.2%
CN(C)CCCNC(=O)c1ccnc(/C=N/O)c1 [CBK288434]	101%
Nc1ccc2ccc(Cl)nc2n1 [CBK039198]	113%
CCOc1ccc2ccccc2c1CNCc1cccnc1 [CBK269934C]	91.8%
O=S(=O)(c1ccccc1C(F)(F)F)n1ccc2c(N3CCNCC3)nccc21 [CBK045605C]	99.5%
O=C1CN(Cc2ccccc2)C(=O)N1CC1CCCCC1 [CBK162367]	93.7%
COC(=O)CCCCCSc1nc2ccc(O)c([N+](=O)[O-])c2s1 [CBK005867]	106%
C/C(=C(/C(=O)N(N)c1nc2ccccc2s1)C(=O)C(F)(F)F)N1CCC(C(N)=O)CC1 [CBK265758]	87.7%
COc1cccc(C(=O)Nc2cc(C)c3c(=O)oc4ccccc4c3n2)c1OC [CBK287437]	106%

SMILES	viability at 28.5 h, 10 µM
Cc1ccc(S(=O)(=O)N=C2NCN(C)CN2)cc1 [CBK261972]	94.3%
COCCNC(=O)c1ccc(-c2ccccc2OC)nc1NCC1CC1 [CBK106246]	103%
Cc1ccc(N(Cc2cc3cccc(C)c3nc2O)C(=O)c2cccc([N+](=O)[O-])c2)cc1 [CBK265426]	98.2%
Cc1csc2c(N3CCSCC3)ncnc12 [CBK009169]	100%
Cc1ccc(S(=O)(=O)Oc2ccc(C(c3c(C)n[nH]c3O)c3c(C)n[nH]c3O)cc2)cc1 [CBK265305]	104%
Fc1ccccc1Nc1nc(-c2ccncc2)cs1 [CBK267216]	103%
CSc1nsc(SCC(=O)c2cc3ccccc3oc2=O)n1 [CBK268833]	105%
O=C1CC(c2ccccc2)n2nc(C(F)(F)F)nc2N1 (stereo not shown) [CBK288063]	114%
Cn1cc(CCCCNC(=O)Cc2c[nH]c3ccc(Cl)cc23)cn1 [CBK306364]	76%
O=C(N1CCn2cnnc2C1)C1(c2ccccc2)CCCC1 [CBK283926]	90.8%
O=C(O)c1ccc(C(=O)c2c3c(=O)n(-c4ccccc4C(=O)O)c(=O)c3cc3c(=O)n(-c4ccccc4C(=O)O)c(=O)c23)cc1 [CBK261183]	91.7%
CCn1c(SCC(=O)Nc2ccc(N3CCOCC3)cc2)nnc1-c1ccncc1 [CBK269765]	89.7%
Cc1ccc(-c2csc3ncn4nnnc4c23)cc1 [CBK019710]	92.5%
CC1(C)CN=C(N2CCN(C3=NCC(C)(C)S3)CC2)S1 [CBK020461]	93.8%
O=C(CSC1c2ccccc2Oc2ccccc21)Nc1cccc(C(=O)O)c1 [CBK266566]	97.9%
COc1ccc2c(c1)C1(CC(=O)N(Cc3ccccc3)C1=O)C(=O)N2CCn1cnc2c1c(=O)n(C)c(=O)n2C (stereo not shown) [CBK075478]	93.5%
COCCNC(=O)c1cnc2ccc(OC)cc2c1O [CBK159999]	95.9%
CC(C)C(=O)N1N=C2CCCCC2C1(O)C(F)(F)F (stereo not shown) [CBK028091]	93.2%
CCOC(=O)c1nc(N)c2c(CC#N)nn(C)c2n1 [CBK023254]	109%
CCOc1ccc2nc(SCc3nc(N)nc(Nc4cccc(Cl)c4C)n3)sc2c1 [CBK265202]	83.1%
O=C1NC2(CCN(C(=O)CCc3ccc(-c4ccccc4)o3)CC2)Nc2ccccc21 [CBK286316]	106%
COc1ccc(-c2cc(C(=O)N3CCN(C(C)=O)CC3)cnc2-c2ccc(Cl)cc2)cc1 [CBK037577]	102%

SMILES	viability at 28.5 h, 10 µM
CCSc1nnc2c3c(sc2c1N)CC(C)(C)OC3 [CBK020374]	95.4%
CC1CCN(C(=O)c2cc(-c3ccco3)[nH]n2)CC1 [CBK296648]	101%
Cc1c(C(=O)O)ccc2c1N[C@@H](c1ccc(OCC#N)cc1)C1CC=CC21 (stereo partly shown) [CBK287124]	89.2%
OC1CCn2c1nc1cc(Cl)ccc12 (stereo not shown) [CBK113623]	79.2%
Nc1nc(-c2ccccc2)c(C(=O)Nc2ccccc2)s1 [CBK058068]	95.2%
O=C(O)c1cccc(Cn2ccc3c(F)cccc32)c1 [CBK003453]	95.9%
CCC(O)CNS(=O)(=O)c1ccc(C(C)C)cc1 (stereo not shown) [CBK043543]	91.6%
Cc1cccc(CCNC(=O)CC2CCN(C(=O)CC3CCCCC3)CC2)c1 [CBK285964]	114%
CN(C)c1oc(-c2ccccc2)nc1S(=O)(=O)c1ccccc1 [CBK021477]	105%
Cn1c(COc2ccc(Cl)cc2Cl)nnc1SCC(=O)N1c2ccccc2SC2C=CC=CC21 (stereo not shown) [CBK268359]	103%
CC(C)(C)OC(=O)N1CCCC(NC(CO)c2ccco2)CC1 (stereo not shown) [CBK304049]	101%
O=S(=O)(c1ccc(-c2ccccc2)cc1)N1CCCN(Cc2cccc(F)c2F)CC1 [CBK063111]	113%
CCn1c(C)nn(-c2nc3c(Cl)cccc3s2)c1=O [CBK026010]	100%
O=C(c1cncnc1)N1CCC2(CCN(C(=O)c3cc(F)c(F)cc3F)C2)C1 (stereo not shown) [CBK131405]	94.8%
O=C(Nc1ccc2nc(SCc3ccc([N+](=O)[O-])cc3)sc2c1)c1ccccc1 [CBK263427]	98.4%
Cc1ccc(NC(=O)CN2C(=O)S/C(=C\c3ccc4c(c3)n(C)c(=O)n4C)C2=O)cc1 [CBK264501]	112%
CCCn1cc(C(=O)NCC2CCN(c3ccccc3F)C2)c(C)n1 (stereo not shown) [CBK304634]	79%
COc1ccc2cc(OCCO)ccc2c1 [CBK176054]	63.6%
O=C(CCNc1n[nH]c(=O)[nH]c1=O)N/N=C\c1ccccc1F [CBK263093]	86.3%
CS(=O)(=O)Nc1nccnc1OC1CCN(CCCn2c(=O)[nH]c3ccccc32)CC1 [CBK084277]	91.8%
COc1ccc(CCCC(=O)N2CCN(c3ccccc3OC)CC2)cc1OC [CBK091495]	87.1%
CS(=O)(=O)N1CC2(CCN(CC3COc4ccccc4O3)CC2)c2ccccc21 (stereo not shown) [CBK115461T]	101%

SMILES	viability at 28.5 h, 10 µM
Cc1cc2c(cc3c(=O)n(CC(=O)N4CCCCCC4)nc(C)n32)o1 [CBK283591]	103%
CC(Oc1ccc(C#N)cc1)C(=O)NCC(C)(C)N1CCOCC1 (stereo not shown) [CBK304066]	90%
N#Cc1cccc(CSc2nnc(-c3ccccc3O)n2Cc2ccccc2)c1 [CBK267395]	85.8%
CS(=O)(=O)N1CCN(c2ccc(NC(=O)c3ccc(-c4cccc([N+](=O)[O-])c4)o3)cc2)CC1 [CBK268602]	98.6%
C(=N\N=C(/c1ccccc1)C12CN3CN(CN(C3)C1)C2)/c1ccc2c(c1)OCO2 [CBK261816]	102%
O=C(Cc1cc(F)c(F)c(F)c1)Nc1cnccn1 [CBK161764]	90.1%
CCCC(=O)Nc1sc(C)c(C)c1C(=O)Nc1ccccc1OC [CBK262455]	104%
CCCCC12CN3CCN(CC(C3)/C1=N\N=C1/C3CN4CCN(C3)CC1(CCCC)C4)C2 [CBK264981]	104%
OCCn1c(S)nnc1-c1ccccc1 [CBK100025]	85.4%
CCOC(=O)c1cnc(SC)nc1NCCc1c[nH]c2cc(OC)ccc12 [CBK092317]	87.6%
Cc1ccccc1C(=O)NC(=S)Nc1sc2c(c1C#N)CCCC2 [CBK264403]	98.3%
O=C(CSc1ccc2ccccc2n1)NNC(=O)c1cccc([N+](=O)[O-])c1 [CBK262506]	91.7%
Cc1ccc(NC(=S)N2CCCC2C(=O)O)c(C)c1 (stereo not shown) [CBK007148]	79.3%
OCCN1CCN(c2ccc(-c3cc(C(F)(F)F)cc(C(F)(F)F)c3)cn2)CC1 [CBK036941]	99%
O=C(c1ccc2[nH]ccc2c1)N1CCc2ccccc21 [CBK200269]	101%
CCN(Cc1ccccn1)C(=O)NC(C)c1cccc(NC(C)=O)c1 (stereo not shown) [CBK305380]	92.9%
COc1ccc(-c2cc(C(F)(F)F)nc(SCC(=O)N(C)c3ccccc3)n2)cc1OC [CBK267628]	112%
c1ccc2sc(CCSCCc3nc4ccccc4s3)nc2c1 [CBK261036]	104%
COc1cnc(-c2ccccc2OC)c(NC(=O)c2ccccc2)n1 [CBK145261]	101%
Cc1ccn2cc(-c3ccc4c(c3)CCN4S(C)(=O)=O)cc2c1 [CBK285252]	83.8%
CS(=O)(=O)Nc1ncc(Br)cc1C(=O)Nc1ccc(C(F)(F)F)cc1 [CBK076485]	96.7%
Cc1ccc(-c2nn(CCC#N)cc2C(=O)N2CCOCC2)cc1 [CBK305939]	96.2%

— PMC12040169 (PLOS Biology, 2025)
